Assay results taken from US5030654A, “Glutaramide diuretic agents” (Pfizer Inc., priority 1986, dated 1991).
pIC50: −log10 of the molar value. Where two headings read alike, the source gives them in different places.

Legend:
[1] = molecular target: T1, neutral endopeptidase E.C.3.4.24.11 (Rattus norvegicus, UniProt P07861); assay: inhibition of the neutral endopeptidase E.C.3.4.24.11 in vitro; format: biochemical
T1 construct: neutral endopeptidase preparation from rat kidney; from tissue; host or cells: rat kidney
T1 sequence (P07861 1-750): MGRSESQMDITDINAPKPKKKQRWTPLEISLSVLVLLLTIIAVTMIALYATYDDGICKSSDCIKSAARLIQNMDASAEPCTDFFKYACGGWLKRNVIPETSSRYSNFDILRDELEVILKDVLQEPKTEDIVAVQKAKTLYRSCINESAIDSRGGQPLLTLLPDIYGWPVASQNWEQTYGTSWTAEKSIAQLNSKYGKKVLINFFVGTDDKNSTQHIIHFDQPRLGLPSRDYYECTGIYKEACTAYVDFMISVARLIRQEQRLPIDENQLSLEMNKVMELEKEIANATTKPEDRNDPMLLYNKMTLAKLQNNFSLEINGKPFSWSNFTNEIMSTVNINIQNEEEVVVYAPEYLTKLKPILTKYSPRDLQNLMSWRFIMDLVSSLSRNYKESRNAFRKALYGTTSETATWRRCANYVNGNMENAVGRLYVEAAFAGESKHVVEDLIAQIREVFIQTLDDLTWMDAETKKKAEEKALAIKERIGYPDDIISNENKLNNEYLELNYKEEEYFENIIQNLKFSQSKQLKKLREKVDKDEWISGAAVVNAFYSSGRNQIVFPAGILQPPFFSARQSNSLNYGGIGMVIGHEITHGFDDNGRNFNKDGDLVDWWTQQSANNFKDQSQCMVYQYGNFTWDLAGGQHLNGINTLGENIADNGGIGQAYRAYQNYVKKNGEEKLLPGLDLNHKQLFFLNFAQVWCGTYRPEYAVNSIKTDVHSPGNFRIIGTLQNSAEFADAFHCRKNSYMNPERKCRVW
Procedure: Activity against neutral endopeptidase E.C.3.4.24.11 is assessed using a procedure based on the assay described by J. T. Gafford, R. A. Skidgel, E. G. Erdos and L. B. Hersh, Biochemistry, 1983, […], 3265-3271. The method involves determining the concentration of compound required to reduce by 50% the rate of release of radiolabelled hippuric acid from hippuryl-L-phenylalanyl-L-arginine by a neutral endopeptidase preparation from rat kidney.
(§1) The activity of the racemate and separated enantiomers of the cis-4-{1-[2-carboxy-3-(2-methoxyethoxy)propyl]-1-cyclopentanecarboxamido}- 1-cyclohexanecarboxylic acid was assessed by measuring their ability to inhibit the neutral endopeptidase E.C.3.4.24.11 in vitro or to induce natriuresis in mice in vivo following the procedures described herein.
The compounds were assessed for their ability to inhibit the neutral endopeptidase E.C.3.4.24.11 following the procedure described herein.

[2] = tested on: male mice (Charles River CDl); assay: natriuresis in mice in vivo (saline loaded conscious mice); design: species or system mouse; details: i.v. via tail vein, urine collected for two hours
Procedure: The activity of the compounds as diuretic agents is determined by measuring their ability to increase urine output and sodium ion excretion in saline loaded conscious mice. In this test, male mice (Charles River CDl, 22-28 g) are acclimatised and starved overnight in metabowls. The mice are dosed intravenously via the tail vein, with the test compound dissolved in a volume of saline solution equivalent to 2.5% of body weight. Urine samples are collected each hour for two hours in pre-weighed tubes and analysed for electrolyte concentration. Urine volume and sodium ion concentration from the test animals are compared to a control group which received only saline.
as §1

[3] = in vitro, neutral endopeptidase preparation from rat kidney, racemate and enantiomers (Example 445), read-out: IC50 against E.C.3.4.24.11
[4] = neutral endopeptidase E.C.3.4.24.11, rat kidney preparation (Example 454), read-out: IC50

Structure (SMILES)	pIC50 [1, 3]	pIC50 [1, 4]	Natriuresis in mouse (i.v.) [2]
COCCOCC(CC1(C(=O)N[C@H]2CC[C@@H](C(=O)O)CC2)CCCC1)C(=O)O (mixture of isomers) [(±) R,S, cis-4-{1-[2-carboxy-3-(2-methoxyethoxy)propyl]-1-cyclopentanecarboxamido}-1-cyclohexanecarboxylic acid]	7.32	–	active at 3 mg/kg
COCCC(CC1(C(=O)N[C@H]2CC[C@@H](C(=O)O)CC2)CCCC1)C(=O)O (relative stereo) [Example 217, 3-{1-[(cis-4-Carboxy-cyclohexyl)carbamoyl]cyclopentyl}-2-(2-methoxyethyl)propanoic acid]	–	7.30	–
CCCCC1CC(NC(=O)C2(C[C@@H](COCCOC)C(=O)O)CCCC2)CCC1C(=O)O (single isomer, unassigned; isomer a) [Example 449 isomer A, 3-[1-(c-4-Carboxy-c-3-butylcyclohexyl-r-1-carbamoyl)cyclopentyl]-2S-(2-methoxyethoxymethyl)propanoic acid]	–	8.44	–
COCCOC[C@H](CC1(C(=O)N[C@H]2CC[C@@H](C(=O)O)CC2)CCCC1)C(=O)O [(+) S, (S)-cis-4-{1-[2-Carboxy-3-(2-methoxyethoxy)propyl]-1-cyclopentanecarboxamido}-1-cyclohexanecarboxylic acid]	7.41	–	active at 1.5 mg/kg
CCCCC1CC(NC(=O)C2(C[C@@H](COCCOC)C(=O)O)CCCC2)CCC1C(=O)O (stereo partly drawn) [Example 451, 3-[1-(c-4-Carboxy-t-3-butyl-r-1-carbamoyl)cyclopentyl]-2S-(2-methoxyethoxymethyl)propanoic acid]	–	8.10	–

More lines, main results first:

pIC50 [1, 3]	pIC50 [1, 4]	Structure (SMILES)	Natriuresis in mouse (i.v.) [2]
–	8.25	CCCCC1CC(NC(=O)C2(C[C@@H](COCCOC)C(=O)O)CCCC2)CCC1C(=O)O (single isomer, unassigned) [Example 449 isomer B, 3-[1-(c-4-Carboxy-c-3-butylcyclohexyl-r-1-carbamoyl)cyclopentyl]-2S-(2-methoxyethoxymethyl)propanoic acid]	–
> 6.00	–	COCCOC[C@@H](CC1(C(=O)N[C@H]2CC[C@@H](C(=O)O)CC2)CCCC1)C(=O)O [(-) R, cis-4-{1-[2-carboxy-3-(2-methoxyethoxy)propyl]-1-cyclopentanecarboxamido}-1-cyclohexanecarboxylic acid]	inactive at 3 mg/kg
–	8.10	CCCCC1CC(NC(=O)C2(CC(CCOC)C(=O)O)CCCC2)CCC1C(=O)O (centres unmarked) [Example 453, 3-[1-(c-4-Carboxy-c-3-butylcyclohexyl-r-1-carbamoyl)cyclopentyl]-2-(2-methoxyethyl)propanoic acid]	–
